Test results: PubChem BioAssay (NCI)
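Test compounds were applied to cells in 96-well plates for 48 hours at 5 doses. At the TGI there is no net growth.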

What was measured:
Assay in all cases: NCI anticancer screen, dose series, 48 h
786-0 renal = system: 786-0 renal
A498 renal = system: A498 renal
A549 NSCLC = system: A549 NSCLC
ACHN renal = system: ACHN renal
CAKI-1 renal = system: CAKI-1 renal
CCRF-CEM leukemia = system: CCRF-CEM leukemia
COLO 205 colon = system: COLO 205 colon
DLD-1 colon = system: DLD-1 colon
DMS 114 small cell lung = system: DMS 114 small cell lung
DMS 273 small cell lung = system: DMS 273 small cell lung
EKVX NSCLC = system: EKVX NSCLC
HCC-2998 colon = system: HCC-2998 colon
HCT-116 colon = system: HCT-116 colon
HCT-15 colon = system: HCT-15 colon
HOP-18 NSCLC = system: HOP-18 NSCLC
HOP-62 NSCLC = system: HOP-62 NSCLC
HT29 colon = system: HT29 colon
IGROV1 ovarian = system: IGROV1 ovarian
K-562 leukemia = system: K-562 leukemia
KM12 colon = system: KM12 colon
KM20L2 colon = system: KM20L2 colon
LOX IMVI melanoma = system: LOX IMVI melanoma
M14 melanoma = system: M14 melanoma
M19-MEL melanoma = system: M19-MEL melanoma
MALME-3M melanoma = system: MALME-3M melanoma
MOLT-4 leukemia = system: MOLT-4 leukemia
NCI-H226 lung = system: NCI-H226 lung
NCI-H23 lung = system: NCI-H23 lung
NCI-H460 lung = system: NCI-H460 lung
OVCAR-3 ovarian = system: OVCAR-3 ovarian
OVCAR-4 ovarian = system: OVCAR-4 ovarian
OVCAR-5 ovarian = system: OVCAR-5 ovarian
OVCAR-8 ovarian = system: OVCAR-8 ovarian
RPMI-8226 leukemia = system: RPMI-8226 leukemia
RXF-631 renal = system: RXF-631 renal
SF-268 CNS = system: SF-268 CNS
SF-295 CNS = system: SF-295 CNS
SF-539 CNS = system: SF-539 CNS
SK-MEL-2 melanoma = system: SK-MEL-2 melanoma
SK-MEL-28 melanoma = system: SK-MEL-28 melanoma
SK-MEL-5 melanoma = system: SK-MEL-5 melanoma
SK-OV-3 ovarian = system: SK-OV-3 ovarian
SN12C renal = system: SN12C renal
SNB-19 CNS = system: SNB-19 CNS
SNB-75 CNS = system: SNB-75 CNS
SNB-78 CNS = system: SNB-78 CNS
SW-620 colon = system: SW-620 colon
TK-10 renal = system: TK-10 renal
U251 CNS = system: U251 CNS
UACC-257 melanoma = system: UACC-257 melanoma
UACC-62 melanoma = system: UACC-62 melanoma
UO-31 renal = system: UO-31 renal
XF 498 CNS = system: XF 498 CNS

c1ccc(C(c2ccccc2)c2ccncc2)cc1
TGI (786-0 renal): > 100 µM
TGI (A498 renal): > 100 µM
TGI (A549 NSCLC): > 100 µM
TGI (ACHN renal): > 100 µM
TGI (CAKI-1 renal): > 100 µM
TGI (CCRF-CEM leukemia): > 100 µM
TGI (COLO 205 colon): > 100 µM
TGI (DLD-1 colon): > 100 µM
TGI (DMS 114 small cell lung): > 100 µM
TGI (DMS 273 small cell lung): > 100 µM
TGI (EKVX NSCLC): > 100 µM
TGI (HCC-2998 colon): > 100 µM
TGI (HCT-116 colon): > 100 µM
TGI (HCT-15 colon): > 100 µM
TGI (HOP-18 NSCLC): > 100 µM
TGI (HOP-62 NSCLC): > 100 µM
TGI (HT29 colon): > 100 µM
TGI (IGROV1 ovarian): > 100 µM
TGI (K-562 leukemia): > 100 µM
TGI (KM12 colon): > 100 µM
TGI (KM20L2 colon): > 100 µM
TGI (LOX IMVI melanoma): > 100 µM
TGI (M14 melanoma): > 100 µM
TGI (M19-MEL melanoma): > 100 µM
TGI (MALME-3M melanoma): > 100 µM
TGI (MOLT-4 leukemia): > 100 µM
TGI (NCI-H226 lung): > 100 µM
TGI (NCI-H23 lung): > 100 µM
TGI (NCI-H460 lung): > 100 µM
TGI (OVCAR-3 ovarian): > 100 µM
TGI (OVCAR-4 ovarian): > 100 µM
TGI (OVCAR-5 ovarian): > 100 µM
TGI (OVCAR-8 ovarian): > 100 µM
TGI (RPMI-8226 leukemia): > 100 µM
TGI (RXF-631 renal): > 100 µM
TGI (SF-268 CNS): > 100 µM
TGI (SF-295 CNS): > 100 µM
TGI (SF-539 CNS): > 100 µM
TGI (SK-MEL-2 melanoma): > 100 µM
TGI (SK-MEL-28 melanoma): > 100 µM
TGI (SK-MEL-5 melanoma): > 100 µM
TGI (SK-OV-3 ovarian): > 100 µM
TGI (SN12C renal): > 100 µM
TGI (SNB-19 CNS): > 100 µM
TGI (SNB-75 CNS): 74.3 µM
TGI (SNB-78 CNS): > 100 µM
TGI (SW-620 colon): > 100 µM
TGI (TK-10 renal): > 100 µM
TGI (U251 CNS): > 100 µM
TGI (UACC-257 melanoma): > 100 µM
TGI (UACC-62 melanoma): > 100 µM
TGI (UO-31 renal): > 100 µM
TGI (XF 498 CNS): > 100 µM
